Source: PubChem BioAssay AID330 (DTP/NCI, 2004)
“And” between values parts separate entries of the source, which are not always exact repeats. Equal values may be shown once. Toxic doses and inconclusive results are not listed.

System: P388 leukemia ip, CD2F1 mice, survival T/C
Assay: NCI In Vivo Anticancer Drug Screen. Data for tumor model P388 Leukemia (intraperitoneal) in CD2F1 (CDF1) mice
Settings: endpoint: median survival time, higher = longer survival
In short: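 Mice carrying the transplanted tumor received test compound or vehicle. Survival was recorded in each group, and the value is the treated-group measurement divided by that of the vehicle-treated control group.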

[1] = dose: 50.0 mg/kg/injection, schedule: Q01DX009 (ip), vehicle: saline with Tween-80
[2] = dose: 100.0 mg/kg/injection, schedule: Q01DX009 (ip), vehicle: saline with Tween-80
[3] = dose: 200.0 mg/kg/injection, schedule: Q01DX009 (ip), vehicle: saline with Tween-80
[4] = dose: 6.25 mg/kg/injection, schedule: Q01DX009 (ip), vehicle: saline with Tween-80
[5] = dose: 50.0 mg/kg/injection, schedule: Q01DX005 (ip), vehicle: saline with Tween-80
[6] = dose: 200.0 mg/kg/injection, schedule: Q01DX005 (ip), vehicle: saline with Tween-80
[7] = dose: 6.25 mg/kg/injection, schedule: Q01DX009 (ip), vehicle: saline
[8] = dose: 12.5 mg/kg/injection, schedule: Q04DX003 (ip), vehicle: saline with Tween-80

## Clc1cc2c(c(CSC3=NCN(CC4CC4)CN3)c1)OCOC2
dose: 15.0 mg/kg/injection, schedule: Q01DX005 (ip), vehicle: Klucel (hydroxypropylcellulose) (HPC)
  T/C: 99 % of control
dose: 30.0 mg/kg/injection, schedule: Q01DX005 (ip), vehicle: Klucel (hydroxypropylcellulose) (HPC)
  T/C: 100 % of control
dose: 60.0 mg/kg/injection, schedule: Q01DX005 (ip), vehicle: Klucel (hydroxypropylcellulose) (HPC)
  T/C: 98 % of control and 101 % of control

## COc1ccc(C2OC3=C(Nc4ccc([N+](=O)[O-])cc4N3)C2=O)cc1 (stereo unspecified)
dose: 0.93 mg/kg/injection, schedule: Q01DX005 (ip), vehicle: Klucel (hydroxypropylcellulose) (HPC)
  T/C: 89 % of control
dose: 1.87 mg/kg/injection, schedule: Q01DX005 (ip), vehicle: Klucel (hydroxypropylcellulose) (HPC)
  T/C: 93 % of control
dose: 3.75 mg/kg/injection, schedule: Q01DX005 (ip), vehicle: Klucel (hydroxypropylcellulose) (HPC)
  T/C: 92 % of control

## CCCc1n(O)c(C)c(C)[n+]1[O-]
[1]
  T/C: 91 % of control
[2]
  T/C: 100 % of control
[3]
  T/C: 104 % of control

## CC[N+]12CC=C(CO)C1C(O)CC2 (stereo unspecified)
dose: 60.0 mg/kg/injection, schedule: Q01DX005 (ip), vehicle: saline
  T/C: 97 % of control
dose: 120.0 mg/kg/injection, schedule: Q01DX005 (ip), vehicle: saline
  T/C: 95 % of control
dose: 240.0 mg/kg/injection, schedule: Q01DX005 (ip), vehicle: saline
  T/C: 106 % of control

## C1CCN2CC3CCCN4CCCC(C2C1)C34 (stereo unspecified)
dose: 6.2 mg/kg/injection, schedule: Q01DX007 (ip), vehicle: carboxymethylcellulose (CMC)
  T/C: 91 % of control and 100 % of control
dose: 12.5 mg/kg/injection, schedule: Q01DX007 (ip), vehicle: carboxymethylcellulose (CMC)
  T/C: 91 % of control
dose: 25.0 mg/kg/injection, schedule: Q01DX007 (ip), vehicle: carboxymethylcellulose (CMC)
  T/C: 91 % of control

## OCCC1CC2CCCCN2O1 (stereo unspecified)
dose: 50.0 mg/kg/injection, schedule: Q04DX003 (ip), vehicle: saline
  T/C: 101 % of control
dose: 100.0 mg/kg/injection, schedule: Q04DX003 (ip), vehicle: saline
  T/C: 103 % of control
dose: 200.0 mg/kg/injection, schedule: Q04DX003 (ip), vehicle: saline
  T/C: 102 % of control

## COc1c(O)c(OC)c2oc3ccccc3c(=O)c2c1OC
dose: 2.5 mg/kg/injection, schedule: Q01DX009 (ip), vehicle: saline + alcohol
  T/C: 100 % of control
dose: 5.0 mg/kg/injection, schedule: Q01DX009 (ip), vehicle: saline + alcohol
  T/C: 101 % of control
dose: 10.0 mg/kg/injection, schedule: Q01DX009 (ip), vehicle: saline + alcohol
  T/C: 100 % of control

## CCCCC(CC)(CCN)CCCC
dose: 5.0 mg/kg/injection, schedule: Q01DX009 (ip), vehicle: suspension in saline
  T/C: 107 % of control
dose: 10.0 mg/kg/injection, schedule: Q01DX009 (ip), vehicle: suspension in saline
  T/C: 103 % of control
dose: 20.0 mg/kg/injection, schedule: Q01DX009 (ip), vehicle: suspension in saline
  T/C: 90 % of control

## CCOC1=Cc2c(oc3c(C(C)(C)C)cc(OCC)cc23)OC(C(C)(C)C)=C1
dose: 3.12 mg/kg/injection, schedule: Q01DX009 (ip), vehicle: saline with Tween-80
  T/C: 103 % of control
[4]
  T/C: 92 % of control
dose: 12.5 mg/kg/injection, schedule: Q01DX009 (ip), vehicle: saline with Tween-80
  T/C: 100 % of control
dose: 25.0 mg/kg/injection, schedule: Q01DX009 (ip), vehicle: saline with Tween-80
  T/C: 100 % of control

## O=C(NC(O)C(Cl)(Cl)Cl)c1ccccc1 (stereo unspecified)
dose: 12.5 mg/kg/injection, schedule: Q01DX005 (ip), vehicle: saline with Tween-80
  T/C: 95 % of control
dose: 25.0 mg/kg/injection, schedule: Q01DX005 (ip), vehicle: saline with Tween-80
  T/C: 102 % of control
[5]
  T/C: 100 % of control
[6]
  T/C: 96 % of control

## O=[N+]([O-])c1c(N2CCN(CCO)CC2)ccc2nonc12
dose: 50.0 mg/kg/injection, schedule: Q01DX009 (ip), vehicle: suspension in saline
  T/C: 100 % of control
dose: 100.0 mg/kg/injection, schedule: Q01DX009 (ip), vehicle: suspension in saline
  T/C: 108 % of control

## O/N=C\C(=N/O)c1ccc(O)c(O)c1
dose: 100.0 mg/kg/injection, schedule: Q04DX002 (ip), vehicle: saline with Tween-80
  T/C: 107 % of control
dose: 200.0 mg/kg/injection, schedule: Q04DX002 (ip), vehicle: saline with Tween-80
  T/C: 108 % of control
dose: 400.0 mg/kg/injection, schedule: Q04DX002 (ip), vehicle: saline with Tween-80
  T/C: 102 % of control

## NCC=C1C2CC3CC(C2)CC1C3
[7]
  T/C: 105 % of control and 107 % of control and 120 % of control
dose: 12.5 mg/kg/injection, schedule: Q01DX009 (ip), vehicle: saline
  T/C: 107 % of control (2×) and 117 % of control
dose: 25.0 mg/kg/injection, schedule: Q01DX009 (ip), vehicle: saline
  T/C: 111 % of control and 94 % of control
dose: 50.0 mg/kg/injection, schedule: Q01DX009 (ip), vehicle: saline
  T/C: 103 % of control

## O=C(Nc1ccc(Cl)cc1)O/N=C/c1ccc2c(c1)OCO2
[1]
  T/C: 93 % of control
[2]
  T/C: 91 % of control
[3]
  T/C: 86 % of control

## CCCCN(c1ccc(Br)cc1)c1nc(N)nc(N)c1N=O
dose: 25.0 mg/kg/injection, schedule: Q01DX005 (ip), vehicle: Klucel (hydroxypropylcellulose) (HPC)
  T/C: 103 % of control
dose: 50.0 mg/kg/injection, schedule: Q01DX005 (ip), vehicle: Klucel (hydroxypropylcellulose) (HPC)
  T/C: 99 % of control
dose: 100.0 mg/kg/injection, schedule: Q01DX005 (ip), vehicle: Klucel (hydroxypropylcellulose) (HPC)
  T/C: 102 % of control
dose: 200.0 mg/kg/injection, schedule: Q01DX005 (ip), vehicle: Klucel (hydroxypropylcellulose) (HPC)
  T/C: 98 % of control

## CC(C)(C)C(=O)CC(=O)C(F)(F)C(F)(F)C(F)(F)F.CC(C)(C)C(=O)CC(=O)C(F)(F)C(F)(F)C(F)(F)F.CC(C)(C)C(=O)CC(=O)C(F)(F)C(F)(F)C(F)(F)F.[Er]
dose: 100.0 mg/kg/injection, schedule: Q01DX009 (ip), vehicle: Klucel (hydroxypropylcellulose) (HPC)
  T/C: 97 % of control
dose: 200.0 mg/kg/injection, schedule: Q01DX009 (ip), vehicle: Klucel (hydroxypropylcellulose) (HPC)
  T/C: 95 % of control
dose: 400.0 mg/kg/injection, schedule: Q01DX009 (ip), vehicle: Klucel (hydroxypropylcellulose) (HPC)
  T/C: 112 % of control

## Cc1cccc(NC(=O)N(CCCl)N=O)c1
dose: 0.38 mg/kg/injection, schedule: Q04DX003 (ip), vehicle: saline with Tween-80
  T/C: 186 % of control
dose: 0.75 mg/kg/injection, schedule: Q04DX003 (ip), vehicle: saline with Tween-80
  T/C: 218 % of control
dose: 1.5 mg/kg/injection, schedule: Q01DX009 (ip), vehicle: saline
  T/C: 159 % of control
dose: 1.5 mg/kg/injection, schedule: Q04DX003 (ip), vehicle: saline with Tween-80
  T/C: 272 % of control
dose: 3.0 mg/kg/injection, schedule: Q01DX009 (ip), vehicle: saline
  T/C: 206 % of control
dose: 3.13 mg/kg/injection, schedule: Q01DX009 (ip), vehicle: saline with Tween-80
  T/C: 254 % of control
dose: 3.13 mg/kg/injection, schedule: Q04DX003 (ip), vehicle: saline
  T/C: 190 % of control
[4]
  T/C: 95 % of control
dose: 6.25 mg/kg/injection, schedule: Q04DX003 (ip), vehicle: saline with Tween-80
  T/C: 200 % of control
dose: 6.25 mg/kg/injection, schedule: Q04DX003 (ip), vehicle: saline
  T/C: 209 % of control
dose: 8.25 mg/kg/injection, schedule: Q04DX003 (ip), vehicle: saline with Tween-80
  T/C: 276 % of control
[8]
  T/C: 272 % of control and 285 % of control
dose: 12.5 mg/kg/injection, schedule: Q04DX003 (ip), vehicle: saline
  T/C: 118 % of control

## Cc1ccc(S(=O)(=O)SSN2CCOCC2)cc1
[5]
  T/C: 103 % of control
dose: 100.0 mg/kg/injection, schedule: Q01DX005 (ip), vehicle: saline with Tween-80
  T/C: 100 % of control
[6]
  T/C: 100 % of control

## CC(=N/NC(=S)NCCN1CCCCC1)/C(C)=N\NC(=S)NCCN1CCCCC1
dose: 0.78 mg/kg/injection, schedule: Q01DX009 (ip), vehicle: saline
  T/C: 106 % of control
dose: 1.56 mg/kg/injection, schedule: Q01DX009 (ip), vehicle: saline
  T/C: 94 % of control
dose: 3.13 mg/kg/injection, schedule: Q01DX009 (ip), vehicle: saline
  T/C: 97 % of control
[7]
  T/C: 103 % of control
[8]
  T/C: 108 % of control
dose: 25.0 mg/kg/injection, schedule: Q04DX003 (ip), vehicle: saline with Tween-80
  T/C: 101 % of control

## Nc1n[n+](C2CCCCC2)no1
dose: 3.13 mg/kg/injection, schedule: Q01DX009 (ip), vehicle: water
  T/C: 111 % of control
dose: 6.25 mg/kg/injection, schedule: Q01DX009 (ip), vehicle: water
  T/C: 98 % of control
dose: 12.5 mg/kg/injection, schedule: Q01DX009 (ip), vehicle: water
  T/C: 101 % of control
